What was measured:
[1] = test system: NaPi2b; experiment: Competition with phosphate: Pi uptake assay repeated at 2.1 vs 0.1 mM phosphate; format: cell-based; settings: potency at 2.1 vs 0.1 mM phosphate
In short: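 Phosphate uptake assay with compound, performed at 0.1 mM phosphate and repeated at 2.1 mM phosphate, with IC50 values determined at each phosphate concentration to assess competition with phosphate.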

[2] = Stability of compounds in simulated intestinal fluid (SIF); format: in vitro ADME; settings: simulated intestinal fluid (3 mg/mL pancreatin), incubation time 6 hr, relative to t=0
In short: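 Compounds at […] were incubated 3 or 6 hr in USP simulated gastric fluid with 3 mg/mL pepsin or simulated intestinal fluid with 3 mg/mL pancreatin. Remaining compound was quantified by HPLC-UV or HPLC-MS peak area % and reported as percent of the t=0 level in the same medium.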

[3] = test system: Uptake of Phosphorus from the Intestine; experiment: In vivo co-dosing in chow (urine P out / P consumed); settings: Rattus norvegicus, feed or water, rats, compound in chow, read-out: Mean % inhibition Urine Pout/P consumed; for inhibition in vivo at 100 mg/kg/day: mean drug dose 100 mg/kg/day
In short: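 Male 7-week-old rats were fed a synthetic diet (0.6% P, 0.6% Ca) for 4 days, then housed in metabolic cages with compound in chow at 1.3 mg/g (nominal 100 mg/kg/day). Urinary P was measured by ion chromatography over 24–96 h and related to dietary P consumed. Percentage inhibition was calculated against no-drug controls.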

Row | Compound | % remaining, SIF [2] | Competitive with respect to Pi? [1] | inhibition in vivo at 100 mg/kg/day [3] | inhibition in vivo at 130 mg/kg/day ([3]; mean drug dose 130 mg/kg/day)
1 | O=C(O)c1cccc(SCc2cccc(C(=O)Nc3ccc(N4CCCCC4)cc3-c3cc(C(=O)NCc4cccc(C(F)(F)F)c4)ccn3)c2)c1 [Example 8.1, 3-(3-(4-(piperidin-1-yl)-2-(4-(3-(trifluoromethyl)benzylcarbamoyl)pyridin-2-yl)phenylcarbamoyl)benzylthio)benzoic acid] | >80% | No |  | 
2 | CN(CCN1CCOCC1)C(=O)c1cccc(C(=O)Nc2ccc(N3CCCCC3)cc2-c2cc(C(=O)NCc3cccc(C(F)(F)F)c3)ccn2)c1 [Example 80, N1-Methyl-N1-(2-morpholinoethyl)-N3-(4-(piperidin-1-yl)-2-(4-((3-(trifluoromethyl)benzyl)carbamoyl)pyridin-2-yl)phenyl)isophthalamide] |  | No |  | 
3 | CCN(CC)c1ccc(NC(=O)c2cccc(CSCCOCCOCCOCCOCCC(=O)O)c2)c(-c2cc(C(=O)NCc3cccc(C(F)(F)F)c3)ccn2)c1 [Example 162, 1-(3-(4-(diethylamino)-2-(4-(3-(trifluoromethyl)benzylcarbamoyl)pyridin-2-yl)phenylcarbamoyl)phenyl)-5,8,11,14-tetraoxa-2-thiaheptadecan-17-oic acid] | >80% |  | 10 to 30% | 

The next lines start with results.

Row | % remaining, SIF [2] | Compound | Competitive with respect to Pi? [1] | inhibition in vivo at 100 mg/kg/day [3] | inhibition in vivo at 130 mg/kg/day ([3]; mean drug dose 130 mg/kg/day)
4 | >80% | O=C(O)CCOCCOCCOCCOCCSCc1cccc(C(=O)Nc2ccc(N3CCCCC3)cc2-c2cc(C(=O)N[C@H]3CCCc4ccccc43)ccn2)c1 [Example 142, 1-(3-{[4-(piperidin-1-yl)-2-(4-{[(1S)-1,2,3,4-tetrahydronaphthalen-1-yl]carbamoyl}pyridin-2-yl)phenyl]carbamoyl}phenyl)-5,8,11,14-tetraoxa-2-thiaheptadecan-17-oic acid] |  | ≤ 10% | 
5 | >80% | CCN(CC)c1ccc(NC(=O)c2cccc(CSCCOCCOCCOCCOCCOCCOCCOCCOC)c2)c(-c2cc(C(=O)N[C@H]3CCCc4ccccc43)ccn2)c1 [Example 286, (S)-2-(2-(3-(2,5,8,11,14,17,20,23-octaoxa-26-thiaheptacosan-27-yl)benzamido)-5-(diethylamino)phenyl)-N-(1,2,3,4-tetrahydronaphthalen-1-yl)isonicotinamide] |  |  | 10 to 30%
